Experimental data: patent US12383526B2, “Optimized sigma-1 agonist method of responder selection and treatment” (ANAVEX LIFE SCIENCES CORP., priority 2018, dated 2025)

Tested on: subjects with mild-to-moderate AD
Assay: ADCS-ADL (Activities of Daily Living) change from baseline, 57-week Phase 2a study and 208-week extension study
Type: in vivo, human
Parameters: key to unadjusted change in ADCS-ADL score, Mean ± Std. Dev: change from baseline on ADCS-ADL scale 0–78, higher = greater function
Text: The present study integrates and analyzes data and samples from two consecutive clinical trials: 57-week study and 208-week study. 57-week study was a multicenter Phase 2a clinical trial of the drug ANAVEX2-73 that recruited a sample of 32 subjects with mild-to-moderate AD. It consisted of two parts: Part A was a simple randomized, open-label, two-period, cross-over, adaptive trial lasting up to 5 weeks. Each period involved one specific administration route and two possible dose levels: in one period the oral dose (30 mg or 50 mg) was administrated and in the other period an intravenous (IV) form (3 mg or 5 mg) was administered, making a total of 8 possible dose administration schemes in Part A (details available in FIG. 2A). The two periods were separated by a wash-out period of 12 days where no dose was given.
Part B, following immediately after Part A, was an open-label extension of the oral daily dose for an additional 52 weeks. The primary endpoint of 57-week study was to establish the safety and tolerability of the drug. Secondary endpoints aimed at establishing the relationship between dosing regimen and pharmacodynamics-exploratory efficacy outcomes of cognition and function. Cognition was assessed by the Mini Mental State Examination (MMSE), while functional abilities by the Alzheimer's Disease Co-operative Study—Activities of Daily Living Inventory (ADCS-ADL). Additional cognitive measures included the Cogstate Brief Battery (CBB), and functional measures of Electroencephalography and Event-Related Potential (EEG and ERP). Part B continued an adaptive oral administration scheme. Table 12 summarizes mean oral dose administration during the 57-week study study.
Due to favorable safety and tolerability profile of the 57-week study (Table 2), and in response to requests from patients and caregivers, a 208-week open-label extension study (208-week study) was carried out immediately after completion of 57-week study Part B. 208-week study enrolled the 24 subjects who completed Part B and applied similarly an adaptive daily oral administration scheme. ANAVEX2-73-003 involves continuous evaluation of safety and efficacy as measured by the MMSE and ADCS-ADL. At week 148 (interim time point for analyses), data on the subjects remaining in the study (n=21) was analyzed for efficacy outcomes. This report was drafted using data available at week 148, while ANAVEX2-73-003 is still ongoing.
Exploratory clinical efficacy in this study was defined as change from baseline of each patient's cognitive (MMSE) and functional ability (ADCS-ADL) scores. The MMSE57 is a widely used, validated instrument in clinical AD research, including as a cognitive outcome measure in drug trials. The range of the scale is from 0 to 30, with a higher score indicating higher cognitive function. The ADCS-ADL58 is undertaken in a structured caregiver interview format and assesses performance in activities of daily living of patients with AD. The scale is from 0 to 78, with a higher score indicating greater function. The ADCS-ADL has shown to have good test-retest reliability 59. The MMSE and the ADCS-ADL were assessed during pre-specified clinical site visits across 14 different time points during the 57-week study (Weeks 0 and 5 in Part A; Weeks 17, 31, 41, 53, and 57 in Part B), and 208-week study (Weeks 70, 83, 96, 109, 122, 135, and 148) studies.
Corresponding Delta scores were calculated using the difference between values at each visit and at baseline for each individual patient, with a focus on Week 57. In addition, to lower the impact of noise in MMSE and ADCS-ADL scores, a Slope was estimated using a linear regression across all available time points for each individual patient. The derived scores describe the progression of exploratory efficacy data from baseline at several specific time points (Deltas) and over a set period of time (Slope). […]

Compound: CN(C)CC1CCOC1(c1ccccc1)c1ccccc1.Cl (centres unmarked) [ANAVEX2-73, tetrahydro-N,N-dimethyl-2,2-diphenyl-3-furanmethanamine hydrochloride]
- ADCS-ADL Mean Δ at 57 weeks (Absence of COMT_L146fs variant & Baseline MMSE ≥20, N 11): −0.63 ± 5.33
- ADCS-ADL Mean Δ at 57 weeks (Absence of COMT_L146fs variant, N 16): −2.37 ± 6.96
- ADCS-ADL Mean Δ at 57 weeks (Absence of SIGMAR1_Q2P variant & Absence of COMT_L145fs variant & Baseline MMSE ≥20, N 10): −0.30 ± 5.50
- ADCS-ADL Mean Δ at 57 weeks (Absence of SIGMAR1_Q2P variant, N 16): −3.31 ± 7.64
- ADCS-ADL Mean Δ at 57 weeks (Absence of SIGNAR1_Q2P variant & Baseline MMSE ≥20, N 11): −1.27 ± 6.13
- unadjusted change in ADCS-ADL score, Mean ± Std. Dev (All Patients (N = 21), Week 0): 0 ± 0
- unadjusted change in ADCS-ADL score, Mean ± Std. Dev (All Patients (N = 21), Week 5): −1.65 ± 6.71
- unadjusted change in ADCS-ADL score, Mean ± Std. Dev (All Patients (N = 21), Week 17): −1.33 ± 3.85
- unadjusted change in ADCS-ADL score, Mean ± Std. Dev (All Patients (N = 21), Week 31): −3.60 ± 8.09
- unadjusted change in ADCS-ADL score, Mean ± Std. Dev (All Patients (N = 21), Week 41): −3.95 ± 6.34
- unadjusted change in ADCS-ADL score, Mean ± Std. Dev (All Patients (N = 21), Week 53): −5.29 ± 7.47
- unadjusted change in ADCS-ADL score, Mean ± Std. Dev (All Patients (N = 21), Week 57): −5.24 ± 8.42
- unadjusted change in ADCS-ADL score, Mean ± Std. Dev (All Patients (N = 21), Week 70): −8.81 ± 10.90
- unadjusted change in ADCS-ADL score, Mean ± Std. Dev (All Patients (N = 21), Week 83): −9.38 ± 12.69
- unadjusted change in ADCS-ADL score, Mean ± Std. Dev (All Patients (N = 21), Week 96): −14.52 ± 15.61
- unadjusted change in ADCS-ADL score, Mean ± Std. Dev (All Patients (N = 21), Week 109): −14.25 ± 14.56
- unadjusted change in ADCS-ADL score, Mean ± Std. Dev (All Patients (N = 21), Week 122): −17.84 ± 18.89
- unadjusted change in ADCS-ADL score, Mean ± Std. Dev (All Patients (N = 21), Week 135): −20.29 ± 18.37
- unadjusted change in ADCS-ADL score, Mean ± Std. Dev (All Patients (N = 21), Week 148): −21.16 ± 17.73
- ADCS-ADL Mean Δ at 57 weeks (All, N 21): −5.19 ± 8.46
- ADCS-ADL Mean Δ at 57 weeks (Baseline MMSE ≥20, N 13): −2.00 ± 5.93
- unadjusted change in ADCS-ADL score, Mean ± Std. Dev (Group1 (n 2), Week 0): 0.00 ± 0.00
- unadjusted change in ADCS-ADL score, Mean ± Std. Dev (Group1 (n 2), Week 5): 6.50 ± 9.19
- unadjusted change in ADCS-ADL score, Mean ± Std. Dev (Group1 (n 2), Week 17): 4.50 ± 0.71
- unadjusted change in ADCS-ADL score, Mean ± Std. Dev (Group1 (n 2), Week 31): 6.50 ± 3.54
- unadjusted change in ADCS-ADL score, Mean ± Std. Dev (Group1 (n 2), Week 41): 4.50 ± 0.71
- unadjusted change in ADCS-ADL score, Mean ± Std. Dev (Group1 (n 2), Week 53): 5.00 ± 1.41
- unadjusted change in ADCS-ADL score, Mean ± Std. Dev (Group1 (n 2), Week 57): 6.00 ± 2.83
- unadjusted change in ADCS-ADL score, Mean ± Std. Dev (Group1 (n 2), Week 70): 6.00 ± 2.83
- unadjusted change in ADCS-ADL score, Mean ± Std. Dev (Group1 (n 2), Week 83): 4.50 ± 2.12
- unadjusted change in ADCS-ADL score, Mean ± Std. Dev (Group1 (n 2), Week 96): 5.50 ± 2.12
- unadjusted change in ADCS-ADL score, Mean ± Std. Dev (Group1 (n 2), Week 109): 4.00 ± 0.00
- unadjusted change in ADCS-ADL score, Mean ± Std. Dev (Group1 (n 2), Week 122): 6.00 ± 2.83
- unadjusted change in ADCS-ADL score, Mean ± Std. Dev (Group1 (n 2), Week 135): 6.00 ± 2.83
- unadjusted change in ADCS-ADL score, Mean ± Std. Dev (Group1 (n 2), Week 148): 7.00 ± 4.24
- unadjusted change in ADCS-ADL score, Mean ± Std. Dev (Group2 (n 6), Week 0): 0.00 ± 0.00
- unadjusted change in ADCS-ADL score, Mean ± Std. Dev (Group2 (n 6), Week 5): 0.83 ± 6.59
- unadjusted change in ADCS-ADL score, Mean ± Std. Dev (Group2 (n 6), Week 17): 1.33 ± 2.80
- unadjusted change in ADCS-ADL score, Mean ± Std. Dev (Group2 (n 6), Week 31): 0.33 ± 5.39
- unadjusted change in ADCS-ADL score, Mean ± Std. Dev (Group2 (n 6), Week 41): 0.50 ± 4.09
- unadjusted change in ADCS-ADL score, Mean ± Std. Dev (Group2 (n 6), Week 53): 0.50 ± 4.18
- unadjusted change in ADCS-ADL score, Mean ± Std. Dev (Group2 (n 6), Week 57): 1.83 ± 3.66
- unadjusted change in ADCS-ADL score, Mean ± Std. Dev (Group2 (n 6), Week 70): 0.33 ± 4.93
- unadjusted change in ADCS-ADL score, Mean ± Std. Dev (Group2 (n 6), Week 83): −0.67 ± 5.85
- unadjusted change in ADCS-ADL score, Mean ± Std. Dev (Group2 (n 6), Week 96): −2.50 ± 7.71
- unadjusted change in ADCS-ADL score, Mean ± Std. Dev (Group2 (n 6), Week 109): −3.83 ± 7.96
- unadjusted change in ADCS-ADL score, Mean ± Std. Dev (Group2 (n 6), Week 122): −3.00 ± 6.72
- unadjusted change in ADCS-ADL score, Mean ± Std. Dev (Group2 (n 6), Week 135): −4.17 ± 10.42
- unadjusted change in ADCS-ADL score, Mean ± Std. Dev (Group2 (n 6), Week 148): −8.17 ± 15.96
- unadjusted change in ADCS-ADL score, Mean ± Std. Dev (Group 3 (n 11), Week 0): 0.00 ± 0.00
- unadjusted change in ADCS-ADL score, Mean ± Std. Dev (Group 3 (n 11), Week 5): −0.09 ± 6.32
- unadjusted change in ADCS-ADL score, Mean ± Std. Dev (Group 3 (n 11), Week 17): 0.09 ± 3.45
- unadjusted change in ADCS-ADL score, Mean ± Std. Dev (Group 3 (n 11), Week 31): −1.82 ± 5.71
- unadjusted change in ADCS-ADL score, Mean ± Std. Dev (Group 3 (n 11), Week 41): −2.27 ± 6.40
- unadjusted change in ADCS-ADL score, Mean ± Std. Dev (Group 3 (n 11), Week 53): −1.73 ± 5.61
- unadjusted change in ADCS-ADL score, Mean ± Std. Dev (Group 3 (n 11), Week 57): −1.36 ± 6.09
